In US12723063B2, “GIPR-agonist compounds” (Eli Lilly and Company, priority 2019, dated 2026):
pKi: −log10 of the molar value. *1 amine or outer side, *2 acyl side, *3 side chain or, on linkers, in order; H or OH if unused. Where a SMILES comes first, the peptide text is derived from it. Side-chain parts run from the residue outwards. [ ]: non-standard residue; d: D form. The star is where a group is joined. C20 diacid = O=C(O)CCCCCCCCCCCCCCCCCCC(=O)*; C18 diacid = O=C(O)CCCCCCCCCCCCCCCCC(=O)*; αMePhe(2-F) = C[C@](N)(Cc1ccccc1F)C(=O)O; γGlu = O=C(O)[C@H](CCC(=O)[*:2])N[*:1]; αMeF = C[C@](N)(Cc1ccccc1)C(=O)O; 4Pal = N[C@@H](Cc1ccncc1)C(=O)O; AEEA = NCCOCCOCC(=O)O; Aib = CC(C)(N)C(=O)O

Each compound was assayed against T1, human GLP-1R (Homo sapiens, UniProt P43220) (assay: [125I]-GLP-1 binding, SPA with WGA beads, 0.1% bacitracin). Settings: geometric mean, read-out: hGLP1R Ki.
T1 construct: expressed in transfected cells; crude membranes
T1 sequence (P43220 24-463): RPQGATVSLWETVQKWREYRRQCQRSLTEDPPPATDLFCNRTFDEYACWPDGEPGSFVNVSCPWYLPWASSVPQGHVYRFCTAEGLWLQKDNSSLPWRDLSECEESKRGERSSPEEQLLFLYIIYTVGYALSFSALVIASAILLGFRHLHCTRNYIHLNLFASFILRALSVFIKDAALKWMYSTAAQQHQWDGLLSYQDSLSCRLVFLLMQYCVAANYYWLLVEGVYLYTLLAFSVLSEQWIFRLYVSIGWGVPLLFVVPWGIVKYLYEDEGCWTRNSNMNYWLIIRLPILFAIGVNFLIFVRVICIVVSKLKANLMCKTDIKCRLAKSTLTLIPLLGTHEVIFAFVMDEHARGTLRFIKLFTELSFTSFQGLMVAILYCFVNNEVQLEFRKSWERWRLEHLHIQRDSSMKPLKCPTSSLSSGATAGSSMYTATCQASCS
Description: Stably transfected cell lines are prepared by subcloning receptor cDNA into a pcDNA3 expression plasmid and transfected into human embryonic kidney (HEK) 293 (hGcgR and hGLP-1R) or Chinese Hamster Ovary (CHO) (hGIPR) cells followed by selection with Geneticin (hGLP-1R and hGIPR) or hygromycin B (hGcgR).
Two methods are used for the preparation of crude cell membranes.
Method 1: Frozen cell pellets are lysed on ice in hypotonic buffer containing 50 mM Tris HCl, pH 7.5, and Roche Complete™ Protease Inhibitors with EDTA. The cell suspension is disrupted using a glass Potter-Elvehjem homogenizer fitted with a Teflon® pestle for 25 strokes. The homogenate is centrifuged at 4° C. at 1100× g for 10 minutes. The supernatant is collected and stored on ice while the pellets are resuspended in homogenization buffer and rehomogenized as described above. The homogenate is centrifuged at 1100× g for 10 minutes. The second supernatant is combined with the first supernatant and centrifuged at 35000× g for 1 hour at 4° C. The resulting membrane pellet is resuspended in homogenization buffer containing protease inhibitors at approximately 1 to 3 mg/mL, quick frozen in liquid nitrogen and stored as aliquots in a −80° C. freezer until use.
Method 2: Frozen cell pellets are lysed on ice in hypotonic buffer containing 50 mM Tris HCl, pH 7.5, 1 mM MgCl2, Roche Complete™ EDTA-free Protease Inhibitors and 25 units/mL DNAse I (Invitrogen). The cell suspension is disrupted using a glass Potter-Elvehjem homogenizer fitted with a Teflon® pestle for 20 to 25 strokes. The homogenate is centrifuged at 4° C. at 1800× g for 15 minutes. The supernatant is collected and stored on ice while the pellets are resuspended in homogenization buffer (without DNAse I) and rehomogenized as described above. The homogenate is centrifuged at 1800× g for 15 minutes. The second supernatant is combined with the first supernatant and centrifuged an additional time at 1800× g for 15 minutes. The overall supernatant is then centrifuged at 25000× g for 30 minutes at 4° C. The resulting membrane pellet is resuspended in homogenization buffer (without DNAse I) containing protease inhibitors at approximately 1 to 3 mg/mL and stored as aliquots in a −80° C. freezer until use.
The binding buffer contains 25 mM HEPES, pH 7.4, 2.5 mM CaCl2), 1 mM MgCl2, 0.1% (w/v) bacitracin, 0.003% (w/v) TWEEN®-20, and Roche Complete™ Protease Inhibitors without EDTA.
Data are analyzed using four-parameter (curve maximum, curve minimum, IC50, Hill slope) nonlinear regression routines (Genedata Screener, version 12.0.4, Genedata AG, Basal, Switzerland). […] Values for Ki are reported as the geometric mean, with error expressed as the standard error of the mean (SEM) and n is equal to the number of independent replicates (determined in assays performed on different days). […] SEM is only calculated when […] or greater. Means are expressed as geometric means with the standard error of the mean (SEM) and the number of replicates (n) indicated in parentheses.
In the case of `CC[C@H](C)[C@H](NC(=O)[C@H](CO)NC(=O)[C@H](Cc1ccc(O)cc1)NC(=O)[C@H](CC(=O)O)NC(=O)[C@H](CO)NC(=O)[C@@H](NC(=O)[C@H](Cc1ccccc1)NC(=O)[C@@H](NC(=O)CNC(=O)[C@H](CCC(=O)O)NC(=O)C(C)(C)NC(=O)[C@@H](N)Cc1ccc(O)cc1)[C@@H](C)O)[C@@H](C)CC)C(=O)N[C@@H](C)C(=O)N[C@@H](CC(C)C)C(=O)N[C@@H](CC(=O)O)C(=O)N[C@@H](CCCCN)C(=O)N[C@H](C(=O)N[C@@H](Cc1c[nH]cn1)C(=O)N[C@@H](CCC(N)=O)C(=O)NC(C)(C)C(=O)N[C@@H](CCC(=O)O)C(=O)N[C@@H](Cc1ccccc1)C(=O)N[C@H](C(=O)N[C@@H](CC(N)=O)C(=O)N[C@@H](Cc1ccc(O)cc1)C(=O)N[C@@H](CCCCNC(=O)COCCOCCNC(=O)COCCOCCNC(=O)CC[C@H](NC(=O)CCCCCCCCCCCCCCCCCCC(=O)O)C(=O)O)C(=O)N[C@@H](CC(C)C)C(=O)N[C@@H](C)C(=O)NCC(=O)NCC(=O)N1CCC[C@H]1C(=O)N[C@@H](CO)C(=O)N[C@@H](CO)C(=O)NCC(=O)N[C@@H](C)C(=O)N1CCC[C@H]1C(=O)N1CCC[C@H]1C(=O)N1CCC[C@H]1C(=O)N[C@@H](CO)C(N)=O)C(C)C)[C@@H](C)CC` [Example 96] (H-Y[Aib]EGTFISDYSIALDKIHQ[Aib]EFVNYK([AEEA-AEEA-γGlu-C20 diacid])LAGGPSSGAPPPS-NH2), the pKi was < 6.04. `CC[C@H](C)[C@H](NC(=O)[C@H](CO)NC(=O)[C@H](Cc1ccc(O)cc1)NC(=O)[C@H](CC(=O)O)NC(=O)[C@H](CO)NC(=O)[C@@H](NC(=O)[C@](C)(Cc1ccccc1)NC(=O)[C@@H](NC(=O)CNC(=O)[C@H](CCC(=O)O)NC(=O)C(C)(C)NC(=O)[C@@H](N)Cc1ccc(O)cc1)[C@@H](C)O)[C@@H](C)CC)C(=O)N[C@@H](C)C(=O)N[C@@H](CC(C)C)C(=O)N[C@@H](CC(=O)O)C(=O)N[C@@H](CCCCN)C(=O)N[C@H](C(=O)N[C@@H](Cc1c[nH]cn1)C(=O)N[C@@H](CCC(N)=O)C(=O)NC(C)(C)C(=O)N[C@@H](CCC(=O)O)C(=O)N[C@@H](Cc1ccccc1)C(=O)N[C@H](C(=O)N[C@@H](CC(N)=O)C(=O)N[C@@H](Cc1ccc(O)cc1)C(=O)N[C@@H](CCCCNC(=O)COCCOCCNC(=O)COCCOCCNC(=O)CC[C@H](NC(=O)CCCCCCCCCCCCCCCCCCC(=O)O)C(=O)O)C(=O)N[C@@H](CC(C)C)C(=O)N[C@@H](C)C(=O)NCC(=O)NCC(=O)N1CCC[C@H]1C(=O)N[C@@H](CO)C(=O)N[C@@H](CO)C(=O)NCC(=O)N[C@@H](C)C(=O)N1CCC[C@H]1C(=O)N1CCC[C@H]1C(=O)N1CCC[C@H]1C(=O)N[C@@H](CO)C(N)=O)C(C)C)[C@@H](C)CC` [Example 97] (H-Y[Aib]EGT[αMeF]ISDYSIALDKIHQ[Aib]EFVNYK([AEEA-AEEA-γGlu-C20 diacid])LAGGPSSGAPPPS-NH2) was tested, and the pKi was 6.24. For `CC[C@H](C)[C@H](NC(=O)[C@H](CO)NC(=O)[C@H](Cc1ccc(O)cc1)NC(=O)[C@H](CC(=O)O)NC(=O)[C@H](CO)NC(=O)[C@@H](NC(=O)[C@](C)(Cc1ccccc1)NC(=O)[C@@H](NC(=O)CNC(=O)[C@H](CCC(=O)O)NC(=O)C(C)(C)NC(=O)[C@@H](N)Cc1ccc(O)cc1)[C@@H](C)O)[C@@H](C)CC)C(=O)N[C@@H](C)C(=O)N[C@@H](CC(C)C)C(=O)N[C@@H](CC(=O)O)C(=O)N[C@@H](CCCCN)C(=O)N[C@@H](CCCCNC(=O)COCCOCCNC(=O)COCCOCCNC(=O)CC[C@H](NC(=O)CCCCCCCCCCCCCCCCC(=O)O)C(=O)O)C(=O)N[C@@H](Cc1c[nH]cn1)C(=O)N[C@@H](CCC(N)=O)C(=O)NC(C)(C)C(=O)N[C@@H](CC(=O)O)C(=O)N[C@@H](Cc1ccccc1)C(=O)N[C@H](C(=O)N[C@@H](CCC(=O)O)C(=O)N[C@@H](Cc1ccncc1)C(=O)N[C@@H](CC(C)C)C(=O)N[C@@H](CC(C)C)C(=O)N[C@@H](C)C(=O)NCC(=O)NCC(=O)N1CCC[C@H]1C(=O)N[C@@H](CO)C(=O)N[C@@H](CO)C(=O)NCC(=O)N[C@@H](C)C(=O)N1CCC[C@H]1C(=O)N1CCC[C@H]1C(=O)N1CCC[C@H]1C(=O)N[C@@H](CO)C(N)=O)C(C)C` [Example 23] (H-Y[Aib]EGT[αMeF]ISDYSIALDKK([AEEA-AEEA-γGlu-C18 diacid])HQ[Aib]DFVE[4Pal]LLAGGPSSGAPPPS-NH2), the pKi was 6.60. `CC[C@H](C)[C@H](NC(=O)[C@H](CO)NC(=O)[C@H](Cc1ccc(O)cc1)NC(=O)[C@H](CC(=O)O)NC(=O)[C@H](CO)NC(=O)[C@@H](NC(=O)[C@](C)(Cc1ccccc1F)NC(=O)[C@@H](NC(=O)CNC(=O)[C@H](CCC(=O)O)NC(=O)C(C)(C)NC(=O)[C@@H](N)Cc1ccc(O)cc1)[C@@H](C)O)[C@@H](C)CC)C(=O)N[C@@H](CC(C)C)C(=O)N[C@@H](CC(C)C)C(=O)N[C@@H](CC(=O)O)C(=O)N[C@@H](CCCCN)C(=O)N[C@H](C(=O)N[C@@H](Cc1c[nH]cn1)C(=O)N[C@@H](CCC(N)=O)C(=O)NC(C)(C)C(=O)N[C@@H](CC(=O)O)C(=O)N[C@@H](Cc1ccccc1)C(=O)N[C@H](C(=O)N[C@@H](CCC(=O)O)C(=O)N[C@@H](Cc1ccncc1)C(=O)N[C@@H](CCCCNC(=O)COCCOCCNC(=O)COCCOCCNC(=O)CC[C@H](NC(=O)CCCCCCCCCCCCCCCCCCC(=O)O)C(=O)O)C(=O)N[C@@H](CC(C)C)C(=O)N[C@@H](CCC(=O)O)C(=O)N[C@@H](C)C(=O)NCC(=O)N1CCC[C@H]1C(=O)N[C@@H](CO)C(=O)N[C@@H](CO)C(=O)NCC(=O)N[C@@H](C)C(=O)N1CCC[C@H]1C(=O)N1CCC[C@H]1C(=O)N1CCC[C@H]1C(=O)N[C@@H](CO)C(N)=O)C(C)C)[C@@H](C)CC` [Example 120] (H-Y[Aib]EGT[αMePhe(2-F)]ISDYSILLDKIHQ[Aib]DFVE[4Pal]K([AEEA-AEEA-γGlu-C20 diacid])LEAGPSSGAPPPS-NH2) was tested, and the pKi was < 6.04. `CC[C@H](C)[C@H](NC(=O)[C@H](CO)NC(=O)[C@H](Cc1ccc(O)cc1)NC(=O)[C@H](CC(=O)O)NC(=O)[C@H](CO)NC(=O)[C@@H](NC(=O)[C@H](Cc1ccccc1)NC(=O)[C@@H](NC(=O)CNC(=O)[C@H](CCC(=O)O)NC(=O)[C@@H](C)NC(=O)[C@@H](N)Cc1ccc(O)cc1)[C@@H](C)O)[C@@H](C)CC)C(=O)N[C@@H](CC(C)C)C(=O)N[C@@H](CC(C)C)C(=O)N[C@@H](CC(=O)O)C(=O)N[C@@H](CCCCN)C(=O)N[C@@H](CCCCNC(=O)COCCOCCNC(=O)COCCOCCNC(=O)CC[C@H](NC(=O)CCCCCCCCCCCCCCCCC(=O)O)C(=O)O)C(=O)N[C@@H](C)C(=O)N[C@@H](CCC(N)=O)C(=O)NC(C)(C)C(=O)N[C@@H](CCC(=O)O)C(=O)N[C@@H](Cc1ccccc1)C(=O)N[C@H](C(=O)N[C@@H](CC(N)=O)C(=O)N[C@@H](Cc1c[nH]c2ccccc12)C(=O)N[C@@H](CC(C)C)C(=O)N[C@@H](CC(C)C)C(=O)N[C@@H](CCC(=O)O)C(=O)NCC(=O)NCC(=O)N1CCC[C@H]1C(=O)N[C@@H](CO)C(=O)N[C@@H](CO)C(=O)NCC(=O)N[C@@H](C)C(=O)N1CCC[C@H]1C(=O)N1CCC[C@H]1C(=O)N1CCC[C@H]1C(=O)N[C@@H](CO)C(N)=O)C(C)C` [Example 28] (H-Y[dA]EGTFISDYSILLDKK([AEEA-AEEA-γGlu-C18 diacid])AQ[Aib]EFVNWLLEGGPSSGAPPPS-NH2) showed a pKi of 8.19. `CC[C@H](C)[C@H](NC(=O)[C@H](CO)NC(=O)[C@H](Cc1ccc(O)cc1)NC(=O)[C@H](CC(=O)O)NC(=O)[C@H](CO)NC(=O)[C@@H](NC(=O)[C@H](Cc1ccccc1)NC(=O)[C@@H](NC(=O)CNC(=O)[C@H](CCC(=O)O)NC(=O)[C@@H](C)NC(=O)[C@@H](N)Cc1ccc(O)cc1)[C@@H](C)O)[C@@H](C)CC)C(=O)N[C@@H](CC(C)C)C(=O)N[C@@H](CC(C)C)C(=O)N[C@@H](CC(=O)O)C(=O)N[C@@H](CCCCN)C(=O)N[C@@H](CCCCNC(=O)COCCOCCNC(=O)COCCOCCNC(=O)CC[C@H](NC(=O)CCCCCCCCCCCCCCCCCCC(=O)O)C(=O)O)C(=O)N[C@@H](Cc1c[nH]cn1)C(=O)N[C@@H](CCC(N)=O)C(=O)NC(C)(C)C(=O)N[C@@H](CC(=O)O)C(=O)N[C@@H](Cc1ccccc1)C(=O)N[C@H](C(=O)N[C@@H](CC(N)=O)C(=O)N[C@@H](Cc1c[nH]c2ccccc12)C(=O)N[C@@H](CC(C)C)C(=O)N[C@@H](CC(C)C)C(=O)N[C@@H](C)C(=O)N[C@@H](CCC(N)=O)C(=O)NCC(=O)N1CCC[C@H]1C(=O)N[C@@H](CO)C(=O)N[C@@H](CO)C(=O)NCC(=O)N[C@@H](C)C(=O)N1CCC[C@H]1C(=O)N1CCC[C@H]1C(=O)N1CCC[C@H]1C(=O)N[C@@H](CO)C(N)=O)C(C)C` [Example 9] (H-Y[dA]EGTFISDYSILLDKK([AEEA-AEEA-γGlu-C20 diacid])HQ[Aib]DFVNWLLAQGPSSGAPPPS-NH2) showed a pKi of 6.77.
